Test results taken from patent US20210003580A1, “METHODS OF DETECTION AND TREATMENT OF HYPER TRANSCRIPTION DISEASES” (BOARD OF REGENTS OF THE UNIVERSITY OF TEXAS SYSTEM, priority 2018, published 2021).

What was measured:
[1] = tested on: EwS cell lines; assay: Cell viability (Celltiter-Glo) after drug exposure, EwS cell lines vs controls; format: cell-based, human; conditions: cell viability measured after 72 hours exposure, compared to controls IMR90 / U2OS
Protocol: Cell culture and transfections. Ewing sarcoma cell lines (TC32, CHLA10 and CHLA258) were obtained from Children's Oncology Group and EWS502 was obtained from Dr. Lessnick. Of note, TC32 is highly chemosensitive and CHLA10 was derived from a post-treatment recurrent chemoresistant tumor (Table 1). As controls, IMR90 (primary human neonatal fibroblast) and U2OS (pediatric Osteosarcoma) cell lines were obtained from ATCC. IMR90 and U2OS were cultured in DMEM (Corning), TC32, EWS502, RDES in […] (Corning), SKES1 in McCoys (Corning) and CHLA10, CHLA258 in IMDM (HyClone); all cultured media were supplemented with 10% FBS (Atlanta Biologicals) and 1% antibiotic/antimycotic solution (Corning). Cells were maintained at 37° C. in a humidified atmosphere with 5% CO2 and tested for mycoplasma contamination.
(§1) Cell viability. Cells were seeded at 30% confluence in 96 or 384 well plates with or without reverse transfection with siRNA. For plasmid expression, cells were transfected in 60 mm dishes first and then split into 96 or 384 well plates. The following day, the cells were treated to different drugs/inhibitors and cell viability was evaluated after 48 to 72 hours using Celltiter-Glo (Promega). Each condition was tested in triplicate. […] Drug screening data from an independently published study was obtained from http://www.cancerrxgene.org/.

[2] = tested on: U2OS cells with EWSR1 knockdown; assay: Cell viability, EWSR1-depleted U2OS cells; format: cell-based, human; conditions: U2OS siEWSR1 relative to U2OS siCtrl; 72 hours
Protocol: (§2) All transfections were carried out using Lipofectamine RNAiMax, Lipofectamine 3000 (Invitrogen) following manufacturer's instructions. For RNASEH1 transfections, 3×10^6 TC32 cells were transfected with 13 μg of plasmid DNA using Amaxa nucleofection (program X-001). Gene knockdowns were performed by reverse transfection whereas plasmid transfections were performed 24 hours after seeding. The siRNAs used in this study include: BRCA1 and EWSR1 (Life Technologies), EWSR1, BRCA1, FLI1, FUS, TAF15, 53BP1, FANCA, FANCD2 and FANCI (Santa Cruz). For some experiments, lentiviral transduction of TC32 with shCtrl (clone RHZ4743, Life Technologies) or shFLI1 (clone V2THS227524 or V3THS414176, Life Technologies) was performed. EWS-FLI1, EWS-FLI1 R2L2, EWS-ERG, EWSR1 (full length) and shEWSR1 in pMSCV vector were obtained from Dr. Stephen Lessnick. EWSR1 N terminal domain in pLX304 vector was purchased from DNASU. GFP-RNASEH1 and FLAG-RNASEH1 plasmids were a kind gift from Dr. Robert Crouch (Eunice Kennedy Shriver National Institute of Child Health and Human Development). HA-BRCA1 was obtained from Dr. Yuzuru Shiio (UTH-SA). ISceI in pCAGGS vector was a kind gift from Dr. Maria Jasin (Memorial Sloan Kettering Cancer Center) and Dr. Jeremy Stark (City of Hope Cancer Center). All siRNA and plasmid transfections were accompanied with control siRNA or empty vector respectively.
as §1

[3] = tested on: IMR90 cells; assay: Transcription recovery assay (EU incorporation), IMR90; format: cell-based, human; conditions: exposed for 2 or 16 hours, 30 min EU labeling
Protocol: (§3) Transcription Recovery Assay. […] Post-incubation, cells were fixed, permeabilized and subjected to Click-iT RNA reaction (Click-iT RNA Alexa Flour […] Imaging kit, ThermoFisher Scientific) according to manufacturer's instructions. Washed coverslips were mounted onto glass slides using ProLong Antifade Mounting Solution with DAPI (ThermoFisher Scientific) and imaged using a Zeiss microscope at 63×. A minimum of 100 cells were analyzed for each condition. Image analysis was performed using ImageJ.

[4] = tested on: TC32 cells; assay: Transcription recovery assay (EU incorporation), TC32; format: cell-based, human; conditions: exposed for 2 or 16 hours, 30 min EU labeling
Protocol: as §3

[5] = tested on: U2OS cells transfected with EWS-FLI1; assay: Cell viability, U2OS cells transfected with EWS-FLI1 vs empty vector; format: cell-based, human; conditions: compared to empty vector (EV) transfected cells
Protocol: as §2, with “ISceI in pCAGGS vector was a kind gift from Dr. Maria Jasin (Memorial Sloan Kettering Cancer Center) and Dr. Jeremy Stark (City of Hope Cancer Center). All siRNA and plasmid transfections were accompanied with control siRNA or empty vector respectively.” left out
Cell viability. […] The following day, the cells were treated to different drugs/inhibitors and cell viability was evaluated after 48 to 72 hours using Celltiter-Glo (Promega). […]

[6] = biological target: T1, CDK9/cyclin T1 (Homo sapiens, UniProt P50750); assay: In vitro RNAPII phosphorylation assay (Adapta kinase assay), CDK9; format: biochemical; conditions: 1 μM recombinant protein; substrates CDKtide or RNAPII CTD fragment; relative to vehicle
T1 construct: purchased ThermoFisher Scientific PV4131
Protocol: In vitro RNAPII phosphorylation assay. The following purified recombinant proteins were purchased: RNAPII CTD fragment (POLR2A-1149H, Creative BioMart), EWSR1 (TP303709, Origene), FUS (TP301808, Origene), CDK9/cyclin T1 (PV4131, ThermoFisher Scientific) and CDK7/cyclin H/MNAT1 (ab64303, Abcam). The in vitro kinase assay was performed using the Adapta kinase assay (PV5099, ThermoFisher Scientific) according to manufacturer's instructions. The template used for kinase activity was either 50 μM CDK7/9tide provided in the kit (PV5090, ThermoFisher Scientific), or 12 ng RNAPII CTD fragment. 1 μM EWSR1 or FUS was added to the substrate and 10 μM ATP kinase buffer and pre-incubated for 15 min. 1.77 μg/ml CDK9/cyclin T1 or 5.6 μg/ml CDK7/cyclin H/MNAT1 were then added and the kinase reaction was allowed to proceed for a further 45 minutes. 10 μM ADP and 10 μM ATP served positive and negative controls. Finally, Eu-labeled antibody and Alexa Fluor-647-labeled tracer added and the level of ATP consumption was measured 30 minutes later using BMG Labtech Pherastar microplate reader. Each condition was tested in quadruplicate and the overall experiment was repeated at least 3 times for independent validation.

T1 sequence (P50750 whole entry, the tested form may be a part): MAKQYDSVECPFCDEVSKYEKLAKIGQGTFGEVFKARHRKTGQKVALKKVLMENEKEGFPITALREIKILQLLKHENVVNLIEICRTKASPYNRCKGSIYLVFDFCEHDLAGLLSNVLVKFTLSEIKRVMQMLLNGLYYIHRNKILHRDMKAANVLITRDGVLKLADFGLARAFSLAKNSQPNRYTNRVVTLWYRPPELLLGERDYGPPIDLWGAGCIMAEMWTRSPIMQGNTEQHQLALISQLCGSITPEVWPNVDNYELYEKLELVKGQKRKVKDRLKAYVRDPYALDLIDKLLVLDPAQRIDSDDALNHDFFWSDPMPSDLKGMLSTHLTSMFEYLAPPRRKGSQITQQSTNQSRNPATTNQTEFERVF
T1 sequence (O60563 whole entry partner, the tested form may be a part): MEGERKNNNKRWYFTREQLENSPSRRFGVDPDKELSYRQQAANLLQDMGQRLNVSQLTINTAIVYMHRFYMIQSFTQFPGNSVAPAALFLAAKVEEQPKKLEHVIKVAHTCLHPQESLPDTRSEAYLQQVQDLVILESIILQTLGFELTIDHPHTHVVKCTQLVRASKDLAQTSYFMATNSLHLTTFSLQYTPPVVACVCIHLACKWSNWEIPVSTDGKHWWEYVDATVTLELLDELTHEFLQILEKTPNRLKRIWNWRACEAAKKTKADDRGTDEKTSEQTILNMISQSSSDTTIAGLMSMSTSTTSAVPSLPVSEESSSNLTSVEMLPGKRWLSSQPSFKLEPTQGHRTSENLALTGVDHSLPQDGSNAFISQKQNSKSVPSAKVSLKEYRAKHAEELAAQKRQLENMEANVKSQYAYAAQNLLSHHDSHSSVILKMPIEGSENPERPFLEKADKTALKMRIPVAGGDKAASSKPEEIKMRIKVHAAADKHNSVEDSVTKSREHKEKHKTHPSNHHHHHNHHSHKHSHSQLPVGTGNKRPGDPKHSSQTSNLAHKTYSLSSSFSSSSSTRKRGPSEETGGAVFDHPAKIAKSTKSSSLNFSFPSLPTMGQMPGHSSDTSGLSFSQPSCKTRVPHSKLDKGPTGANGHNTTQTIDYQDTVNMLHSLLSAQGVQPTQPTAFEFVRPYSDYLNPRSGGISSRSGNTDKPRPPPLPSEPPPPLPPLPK

| Molecule | sensitivity (cell viability) of EwS cell lines compared to controls [1] | sensitivity (cell viability) of EWSR1-depleted U2OS cells [2] | also measured |
| --- | --- | --- | --- |
| CC[C@@]1(O)C(=O)OCc2c1cc1n(c2=O)Cc2cc3ccccc3nc2-1 [camptothecin] | much more sensitive | much more sensitive |  |
| OC[C@H]1O[C@@H](n2cnc3cc(Cl)c(Cl)cc32)[C@H](O)[C@@H]1O [DRB, 5,6-dichloro-1-β-D-ribofuranosyl-1H-benzimidazole] | much more sensitive | much more sensitive |  |
| O=c1c2ccccc2sn1-c1ccccc1 [R11] | significantly higher sensitivity |  |  |
| COc1cc([C@@H]2c3cc4c(cc3[C@@H](O[C@@H]3O[C@@H]5CO[C@@H](C)O[C@H]5[C@H](O)[C@H]3O)[C@H]3COC(=O)[C@H]23)OCO4)cc(OC)c1O [etoposide] | acutely sensitive |  | transcriptional activity (EU incorporation) after exposure [3]: decrease in EU incorporation two hours post-damage followed by recovery at 16 hours; transcriptional activity (EU incorporation) after exposure [4]: much delayed loss of transcription |
| CS(=O)(=O)c1ccc(-c2cnc(N)c(C(=O)Nc3ccccc3)n2)cc1 [VE-821] | significantly more sensitive | significantly more sensitive | sensitivity (cell viability) of U2OS cells expressing EWS-FLI1 [5]: significantly more sensitive |
| NC(=O)NO [hydroxyurea] | acutely sensitive |  |  |
| O=C(c1cc(Cc2n[nH]c(=O)c3ccccc23)ccc1F)N1CCN(C(=O)C2CC2)CC1 [Olaparib] | exquisite sensitivity |  | sensitivity (cell viability) of EwS cell lines compared to controls ([1]; listed as olaparib): acutely sensitive; sensitivity (cell viability) of U2OS cells expressing EWS-FLI1 [5]: exquisite sensitivity |
| EWSR1: purified recombinant EWSR1 protein (TP303709, Origene) (protein, UniProt Q01844 1-656, looked up) RNA-binding protein EWS: MASTDYSTYSQAAAQQGYSAYTAQPTQGYAQTTQAYGQQSYGTYGQPTDVSYTQAQTTATYGQTAYATSYGQPPTGYTTPTAPQAYSQPVQGYGTGAYDTTTATVTTTQASYAAQSAYGTQPAYPAYGQQPAATAPTRPQDGNKPTETSQPQSSTGGYNQPSLGYGQSNYSYPQVPGSYPMQPVTAPPSYPPTSYSSTQPTSYDQSSYSQQNTYGQPSSYGQQSSYGQQSSYGQQPPTSYPPQTGSYSQAPSQYSQQSSSYGQQSSFRQDHPSSMGVYGQESGGFSGPGENRSMSGPDNRGRGRGGFDRGGMSRGGRGGGRGGMGSAGERGGFNKPGGPMDEGPDLDLGPPVDPDEDSDNSAIYVQGLNDSVTLDDLADFFKQCGVVKMNKRTGQPMIHIYLDKETGKPKGDATVSYEDPPTAKAAVEWFDGKDFQGSKLKVSLARKKPPMNSMRGGLPPREGRGMPPPLRGGPGGPGGPGGPMGRMGGRGGDRGGFPPRGPRGSRGNPSGGGNVQHRAGDWQCPNPGCGNQNFAWRTECNQCKAPKPEGFLPPPFPPPGGDRGRGGPGGMRGGRGGLMDRGGPGGMFRGGRGGDRGGFRGGRGMDRGGFGGGRRGGPGGPPGPLMEQMGGRRGGRGGPGKMDKGEHRQERRDRPY |  |  | inhibition of phosphorylation of RNAPII CTD by CDK9 [6]: inhibited |
| FUS: purified recombinant FUS protein (TP301808, Origene) (protein, UniProt P35637 1-526, looked up) RNA-binding protein FUS: MASNDYTQQATQSYGAYPTQPGQGYSQQSSQPYGQQSYSGYSQSTDTSGYGQSSYSSYGQSQNTGYGTQSTPQGYGSTGGYGSSQSSQSSYGQQSSYPGYGQQPAPSSTSGSYGSSSQSSSYGQPQSGSYSQQPSYGGQQQSYGQQQSYNPPQGYGQQNQYNSSSGGGGGGGGGGNYGQDQSSMSSGGGSGGGYGNQDQSGGGGSGGYGQQDRGGRGRGGSGGGGGGGGGGYNRSSGGYEPRGRGGGRGGRGGMGGSDRGGFNKFGGPRDQGSRHDSEQDNSDNNTIFVQGLGENVTIESVADYFKQIGIIKTNKKTGQPMINLYTDRETGKLKGEATVSFDDPPSAKAAIDWFDGKEFSGNPIKVSFATRRADFNRGGGNGRGGRGRGGPMGRGGYGGGGSGGGGRGGFPSGGGGGGGQQRAGDWKCPNPTCENMNFSWRNECNQCKAPKPDGPGGGPGGSHMGGNYGDDRRGGRGGYDRGGYRGRGGDRGGFRGGRGGGDRGGFGPGKMDSRGEHRQDRRERPY |  |  | inhibition of phosphorylation of RNAPII CTD by CDK9 [6]: inhibited |
